Measured values from patent publication US20080221134A1, “8-ALKYNYLXANTHINES AND DERIVATIVES” (priority 2006, published 2008).

What was measured:
Rat A2A AR = target: T1, Rat A2A AR (Rattus norvegicus, UniProt P30543); experiment: Radioligand binding assay 1, rat A2A adenosine receptor; conditions: rat striatum, [3H]MSX-2
T1 construct: A2A adenosine receptors from rat striatum; from tissue; host or cells: rat striatum
Protocol: (§1) Rat brain preparations were used for A1- and A2A adenosine receptor (AR) and human recombinant cell samples for A1-, A2A- and A3 adenosine receptor radioligand binding studies. Affinity and selectivity was tested in displacement experiments with following radioligands: [^3H]CCPA for A1-adenosine receptors, [^3H]MSX-2 for A2A-receptors and [^3H]PSB-11 for A3-receptors. Results of these experiments are depicted in table 2b (human data) and table 2a (rat data). Radioligand binding test systems are e.g. generally described by Muller et al., Curr. Pharm. Des., 1996, 2, 501 and Weyler et al., ChemMedChem 2006, 1, 891 and references cited therein) These documents are incorporated herein by reference.

Rat A1 AR = target: T2, Rat A1 AR (Rattus norvegicus, UniProt P25099); experiment: Radioligand binding assay 1, rat A1 adenosine receptor; conditions: rat cortex, [3H]CCPA
T2 construct: Rat brain preparations were used for A1- and A2A adenosine receptor (AR); from tissue; host or cells: rat cortex
T2 sequence (P25099 1-326): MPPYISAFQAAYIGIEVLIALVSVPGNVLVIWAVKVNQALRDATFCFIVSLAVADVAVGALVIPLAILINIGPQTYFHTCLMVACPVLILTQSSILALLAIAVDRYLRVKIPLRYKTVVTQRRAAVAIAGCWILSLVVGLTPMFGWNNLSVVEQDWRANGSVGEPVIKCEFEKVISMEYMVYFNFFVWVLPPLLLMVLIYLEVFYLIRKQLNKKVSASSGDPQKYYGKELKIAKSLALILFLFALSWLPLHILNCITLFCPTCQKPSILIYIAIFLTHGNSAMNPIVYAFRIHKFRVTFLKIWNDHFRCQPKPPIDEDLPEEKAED
Protocol: as §1

T1 sequence (P30543 whole entry): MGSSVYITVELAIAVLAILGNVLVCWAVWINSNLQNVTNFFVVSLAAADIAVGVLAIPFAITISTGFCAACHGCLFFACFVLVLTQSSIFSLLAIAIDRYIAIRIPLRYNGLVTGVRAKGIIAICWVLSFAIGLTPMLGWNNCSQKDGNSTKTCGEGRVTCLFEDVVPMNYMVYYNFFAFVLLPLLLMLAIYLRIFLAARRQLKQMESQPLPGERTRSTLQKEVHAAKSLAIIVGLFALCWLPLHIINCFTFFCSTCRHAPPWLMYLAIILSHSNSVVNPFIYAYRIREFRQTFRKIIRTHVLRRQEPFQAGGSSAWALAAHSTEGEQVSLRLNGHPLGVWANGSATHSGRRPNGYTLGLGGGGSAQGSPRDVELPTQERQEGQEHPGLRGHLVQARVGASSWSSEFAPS

Compound | Ki (Rat A2A AR) | Ki (Rat A1 AR)
C#CCn1c(=O)c2c(nc(C#Cc3ccccc3OC)n2C)n(C)c1=O | > 10000 nM | > 10000 nM
C#CCn1c(=O)c2c(nc(C#Cc3ccc(OC)c(OC)c3)n2C)n(CCCOC)c1=O [drawing 506] | 44 ± 6.2 nM | > 1000 nM
C#CCn1c(=O)c2c(nc(C#Cc3ccc(OC)c(OC)c3)n2C)n(CC(=O)O)c1=O | 272 ± 57 nM | > 1000 nM
C#CCn1c(=O)c2c(nc(C#Cc3cccc(OCCN(C)C)c3)n2C)n(C)c1=O [drawing 473] | 49 ± 5 nM | 194 ± 33 nM
C#CCn1c(=O)c2c(nc(C#Cc3ccc(OC)c(OC)c3)n2C)n(CC(=O)OCC)c1=O | 167 ± 82 nM | ≥ 1000 nM
C#CCn1c(=O)c2c(nc(C#Cc3cccc(OCCCO)c3)n2C)n(C)c1=O [drawing 468] | 211 ± 46 nM | ≥ 10000 nM
C#CCn1c(=O)c2c(nc(C#Cc3cccc(OC)c3)n2C)n(CCBr)c1=O | 90 ± 25 nM | > 1000 nM
C#CCn1c(=O)c2c(nc(C#Cc3ccc(OC)c(OC)c3)n2C)n(CC(O)CO)c1=O (stereo not drawn) [drawing 537] | 42.3 ± 5.7 nM | > 1000 nM
C#CCn1c(=O)c2c(nc(C#Cc3ccc(OC)c(OC)c3)n2C)n(CCN(C)C)c1=O [drawing 489] | 54 ± 5 nM | 810 ± 145 nM
C#CCn1c(=O)c2c(nc(C#Cc3ccc(OC)c(OC)c3)n2C)n(Cc2cccs2)c1=O [drawing 520] | 103 ± 21 nM | > 1000 nM
C#CCn1c(=O)c2c(nc(C#Cc3cccc(Cl)c3)n2C)n(C)c1=O [drawing 461] | 46 ± 9 nM | > 10000 nM
C#CCn1c(=O)[nH]c2nc(C#Cc3cccc(OC)c3)n(C)c2c1=O | 135 ± 28 nM | > 1000 nM
C#CCn1c(=O)c2c(nc(C#Cc3ccc(C)cc3)n2C)n(C)c1=O | 151 ± 8.4 nM | > 10000 nM
C#CCn1c(=O)c2c(nc(C#Cc3ccc(OCC)c(OCC)c3)n2C)n(CC)c1=O [drawing 497] | 166 ± 50 nM | > 1000 nM
C#CCn1c(=O)c2c(nc(C#Cc3ccc(OC)c(OC)c3)n2C)n(CCC#N)c1=O [drawing 501] | 76.4 ± 32.9 nM | > 1000 nM
C#CCn1c(=O)c2c(nc(C#Cc3ccc4c(c3)OCO4)n2C)n(C)c1=O [drawing 476] | 166 ± 34 nM | > 10000 nM
C#CCn1c(=O)c2c(nc(C#Cc3cccc(OC)c3)n2C)n(CCN(C)C)c1=O [drawing 536] | 161 ± 35 nM | > 1000 nM
C#CCn1c(=O)c2c(nc(C#Cc3ccoc3)n2C)n(CC)c1=O | 220 ± 21 nM | > 1000 nM
C#CCn1c(=O)c2c(nc(C#Cc3ccc(F)c(OC)c3)n2C)n(C)c1=O | 70.3 ± 5.39 nM | > 1000 nM
C#CCn1c(=O)c2c(nc(C#Cc3ccc(OC)c(OC)c3)n2CC#C)n(CC)c1=O | 132 ± 60 nM | > 1000 nM

Compound | Ki (Rat A2A AR) | Ki (Rat A1 AR)
C#CCn1c(=O)c2c(nc(C#Cc3cccc(C)c3)n2C)n(CCCO)c1=O [drawing 534] | 47 ± 2 nM | 467 ± 6 nM
C#CCn1c(=O)c2c(nc(C#Cc3cccc(OC)c3)n2C)n(CC(O)CO)c1=O (stereo not drawn) [drawing 492] | 69.8 ± 17.1 nM | > 1000 nM
C#CCn1c(=O)c2c(nc(C#Cc3cccc(C)c3)n2C)n(CC)c1=O [drawing 486] | 76.3 ± 17.1 nM | > 10000 nM
C#CCn1c(=O)c2c(nc(C#Cc3cccc(OCc4ccoc4)c3)n2C)n(C)c1=O [drawing 479] | 66.4 ± 19 nM | > 1000 nM
C#CCn1c(=O)c2c(nc(C#Cc3ccc(OC)cc3)n2C)n(C)c1=O | 123 ± 38 nM | > 10000 nM
C#CCn1c(=O)c2c(nc(C#Cc3cc(OC)cc(OC)c3)n2C)n(C)c1=O | 190 ± 50 nM | > 10000 nM
C#CCn1c(=O)c2c(nc(C#Cc3ccc(OC)c(F)c3)n2C)n(C)c1=O | 194 ± 39 nM | > 1000 nM
C#CCn1c(=O)c2c(nc(C#Cc3ccc(OC)c(OC)c3)n2C)n(CC(O)CO)c1=O (stereo not drawn) [drawing 493] | 42.3 ± 5.7 nM | ≥ 1000 nM
C#CCn1c(=O)c2c(nc(C#Cc3cccc(OC)c3)n2CC#C)n(C)c1=O [drawing 467] | 90 ± 35.7 nM | ≥ 10000 nM
C#CCn1c(=O)c2c(nc(C#Cc3cccc(Br)c3)n2C)n(C)c1=O [drawing 462] | 151 ± 19 nM | ≥ 10000 nM
C#CCn1c(=O)c2c(nc(C#Cc3cncn3C)n2C)n(CC)c1=O [drawing 511] | 119 ± 26 nM | 460 ± 61 nM
C#CCn1c(=O)c2c(nc(C#Cc3cccc(OCC)c3)n2C)n(C)c1=O | 174 ± 42 nM | ~10000 nM
C#CCn1c(=O)c2c(nc(C#Cc3ccc(OC)c(OC)c3)n2C)n(CCNC)c1=O | 134 ± 16 nM | ≥ 1000 nM
C#CCn1c(=O)c2c(nc(C#Cc3ccc(OC)c(OC)c3)n2C)n(CC(=O)CC)c1=O | 91.7 ± 38.3 nM | > 1000 nM
C#CCn1c(=O)c2c(nc(C#Cc3cccc(OCCOC)c3)n2C)n(C)c1=O [drawing 471] | 219 ± 52 nM | ≥ 10000 nM
C#CCn1c(=O)c2c(nc(C#Cc3ccc(OC)c(OC)c3)n2C)n(CCC(=O)CC)c1=O | 103 ± 15 nM | 111 ± 26 nM
CCn1c(=O)n(Cc2ccoc2)c(=O)c2c1nc(C#Cc1ccc(OC)c(OC)c1)n2C | 90.7 ± 11.2 nM | 1250 ± 106 nM
C#CCn1c(=O)c2c(nc(C#Cc3cccc(Cl)c3)n2C)n(CC)c1=O | 141 ± 28 nM | 488 ± 253 nM
C#CCn1c(=O)c2c(nc(C#Cc3cccc(OC)c3)n2CC#N)n(C)c1=O | 56.2 ± 12.9 nM | > 1000 nM
C#CCn1c(=O)c2c(nc(C#Cc3cccc(F)c3)n2C)n(C)c1=O | 466 ± 36 nM | > 10000 nM

The remaining molecules from weak to strong by Ki (Rat A2A AR), led by results:

Ki (Rat A2A AR) | Ki (Rat A1 AR) | Compound
41.8 ± 4.3 nM | > 1000 nM | C#CCn1c(=O)c2c(nc(C#Cc3cccc(OC)c3)n2C)n(CC=C)c1=O [drawing 490]
38.2 ± 12 nM | > 1000 nM | C#CCn1c(=O)c2c(nc(C#Cc3cccc(OC)c3)n2C)n(CC2CO2)c1=O (stereo not drawn)
36.2 ± 4.5 nM | 96 ± 16.4 nM | C#CCn1c(=O)c2c(nc(C#Cc3cccc(OC)c3)n2CC#CC)n(C)c1=O
35.6 ± 14.1 nM | > 1000 nM | C#CCn1c(=O)c2c(nc(C#Cc3ccc(OC)c(OC)c3)n2C)n(CCOCC)c1=O
34.9 ± 6.9 nM | 176 ± 59 nM | C#CCn1c(=O)c2c(nc(C#Cc3ccc(OC)c(OC)c3)n2C)n(CCC=C)c1=O
32.7 ± 6.1 nM | > 10000 nM | C#CCn1c(=O)c2c(nc(C#Cc3ccc(OC)c(OC)c3)n2C)n(C)c1=O [drawing 458]
30.9 ± 8 nM | > 10000 nM | C#CCn1c(=O)c2c(nc(C#Cc3cccc(OC)c3)n2C)n(C)c1=O [drawing 456]
30.1 ± 5.4 nM | 337 ± 67 nM | C#CCn1c(=O)c2c(nc(C#Cc3ccc(OC)c(OC)c3)n2C)n(CCCO)c1=O [drawing 533]
29.6 ± 6.1 nM | > 1000 nM | C#CCn1c(=O)c2c(nc(C#Cc3ccc4c(c3)OCO4)n2C)n(CC)c1=O
28.8 ± 4.1 nM | > 1000 nM | C#CCn1c(=O)c2c(nc(C#Cc3ccc(OC)c(OC)c3)n2C)n(Cc2cnc[nH]2)c1=O [drawing 527]
24.2 ± 3.8 nM | 234 ± 47 nM | C#CCn1c(=O)c2c(nc(C#Cc3ccc(OC)c(OC)c3)n2C)n(CCC(F)(F)F)c1=O
19.2 ± 1.4 nM | 64 ± 5.4 nM | C#CCn1c(=O)c2c(nc(C#Cc3ccc(OC)c(OC)c3)n2C)n(CCC2CO2)c1=O (stereo not drawn) [drawing 505]
16.3 ± 2.8 nM | ≥ 1000 nM | C#CCn1c(=O)c2c(nc(C#Cc3ccc(OC)c(OC)c3)n2C)n(CCCF)c1=O
16 ± 6 nM | 157 ± 12 nM | C#CCn1c(=O)c2c(nc(C#Cc3ccc(OC)c(OC)c3)n2C)n(C(C)C(C)=O)c1=O (stereo not drawn) [drawing 524]
15 ± 2 nM | ≥ 10000 nM | C#CCn1c(=O)[nH]c2nc(C#Cc3ccc(OC)c(OC)c3)n(C)c2c1=O [drawing 483]
13.4 ± 6.5 nM | ≥ 1000 nM | C#CCn1c(=O)c2c(nc(C#Cc3ccc(OC)c(OC)c3)n2C)n(CCC)c1=O [drawing 515]
13.3 ± 1.4 nM | 189 ± 33 nM | C#CCn1c(=O)c2c(nc(C#Cc3ccc(OC)c(OC)c3)n2C)n(CC(C)O)c1=O (stereo not drawn) [drawing 502]
12.7 ± 2.8 nM | ≥ 1000 nM | C#CCn1c(=O)c2c(nc(C#Cc3ccc(OC)c(OC)c3)n2C)n(CC(F)(F)F)c1=O
11.8 ± 1.6 nM | 142 ± 8 nM | C#CCn1c(=O)c2c(nc(C#Cc3cccc(OC)c3)n2C)n(CCCO)c1=O [drawing 484]
11.7 ± 1.7 nM | 209 ± 42 nM | C#CCn1c(=O)c2c(nc(C#Cc3ccc(OC)c(OC)c3)n2C)n(CCCCF)c1=O
9.99 ± 0.7 nM | ≥ 1000 nM | C#CCn1c(=O)c2c(nc(C#Cc3ccc(OC)c(OC)c3)n2C)n(CCF)c1=O [drawing 518]
9.5 ± 1.6 nM | > 1000 nM | C#CCn1c(=O)c2c(nc(C#Cc3ccc(OC)c(OC)c3)n2C)n(CC=C)c1=O
6.74 ± 1 nM | 76.8 ± 22.9 nM | C#CCn1c(=O)c2c(nc(C#Cc3ccc(OC)c(OC)c3)n2C)n(Cc2ccco2)c1=O [drawing 503]
5.54 ± 1.3 nM | ≥ 1000 nM | C#CCn1c(=O)c2c(nc(C#Cc3ccc(OC)c(OC)c3)n2C)n(CC(C)C)c1=O [drawing 517]
5.16 ± 1.91 nM | > 1000 nM | C#CCn1c(=O)c2c(nc(C#Cc3ccc(OC)c(OC)c3)n2C)n(Cc2ccoc2)c1=O [drawing 509]
1.83 ± 0.38 nM | 146 ± 46 nM | C#CCn1c(=O)c2c(nc(C#Cc3ccc(OC)c(OC)c3)n2C)n(C[C@H](C)CO)c1=O
